Legend:
STING pathway [1] = test: IFN-β mRNA production in RAW 264.7 cells by RT-qPCR; type: cell-based, murine
Description: FIGS. 3A-3C provide IFN data. […] RAW 264.7 cells were transfected with 1, 5, 10 μM of c-di-GMP, c-di-^tzGMP, c-G^thGMP, c-di-G^thGMP and c-G^tzGMP, and incubated for 2, 4, 6 h before being lysed by TRIzol. RNA purification and RT-qPCR were conducted following the protocol described in the Experimental Section. FIG. 3B show IFN response after 2, 4, 6 h of incubation with 5 μM of CDNs. […] Two independent assays were performed in triplicates (n=2). Error bars indicate SD. See Yi et al, Tuning the Innante Immune Response to Cyclic Dinucleotides by Using Atomic Mutagenesis, ChemBioChem, Volume 21 (2020).
As most synthetic c-di-GMP analogues activated IRF3, the inventors analyzed their dose and time dependency for inducing IFN-β mRNA production by using RT-qPCR. RAW 264.7 cells were transfected with 1, 5 and 10 μM of CDNs as described above and incubated for 2, 4 and 6 h. Total RNA was isolated and used for RT-qPCR. As shown in FIGS. 3A-3B, c-di-GMP induced the most IFN-β mRNA production 4 h post transfection, whereas the highest response was observed after 2 h for c-di-tzGMP, c-GthGMP, and c-GtzGMP.
RT-qPCR. RAW 264.7 cells were plated on 48-well plates (2.5×10^5 cells per well) and transfected with CDN using the same method as above after 48 h of incubation at 37° C. Cells were then incubate with regular growth medium for designated time, and total RNA was isolated with TRIzol® reagent and purified with RNeasy mini kit (Qiagen) following the manufacturer's protocol. Following elution, RNA yields were evaluated using a Nanodrop spectrophotometer (Nanodrop technologies). RNA samples were converted to cDNA with SuperScript III First-Strand Synthesis kit (Invitrogen) with random hexamers following the manufacturer's protocol. Quantitative PCR (SYBR Green) analysis was performed in duplicates on an Applied Biosystems 7300 Real-time PCR system (Invitrogen). Transcription level of IFN-β gene of each sample was normalized to housekeeping gene TBP and then to untreated samples (UT) using the delta-delta CT method.

STING pathway [2] = test: IRF3 phosphorylation in RAW 264.7 cells (immunoblot pIRF3 vs β-actin); type: cell-based, murine; settings: RAW 264.7, 1, 5 and 10 μM CDN, 2 h after transfection
Description: FIGS. 2A-2B show IRF3 phosphorylation induced by c-di-GMP and its analogues. […] 1, 5 and 10 μM of each CDN was used to transfect RAW 264.7 cells. Cells were lysed with NP-40 lysis buffer 2 h post transfection, 20 μg of total protein was loaded on SDS-polyacrylamide gel. Proteins were transferred to PVDF membrane after gel electrophoresis, and immunoblotted against pIRF3 and β-actin. […] The y-axis indicates relative intensity of pIRF3 compare to β-actin.
To analyze the immunostimulatory effects of all synthetic CDNs in greater detail, RAW 264.7 cells were treated with various concentrations of c-di-GMP, c-di-tzGMP, c-di-thGMP, c-GthGMP and c-GtzGMP and the phosphorylation of IRF3 to pIRF3 was evaluated. CDNs were thus transfected into RAW 264.7 murine cells with digitonin as described in previous studies.[7b,16] Cells were then lysed with NP-40 buffer 2 h after transfection, and total protein was collected for immunoblotting against phosphorylated IRF3 (pIRF3) and β-actin. […] Two other biological replicates produced similar trends (See FIG. S2 in Yi et al, ChemBioChem, Volume 21 (2020)).
Immunoblotting. RAW 264.7 cells were plated on 24-well plates (5×10^5 cells per well) and incubate at 37° C. for 48 h. Cells were then transfected with 1-10 μM of CDN in a permeabilization buffer containing 10 μg/mL digitonin, 50 mM HEPES, pH 7, 100 mM KCl, 3 mM MgCl2, 85 mM sucrose, 1 mM ATP, 0.1 mM DTT, 0.2% BSA for 30 mins at 37° C., then incubated with regular growth medium for 2 h. Cells were lysed with NP-40 lysis buffer containing protease inhibitor cocktail (Roche), PhosSTOP (Roche) and PMSF, and total protein was collected and quantified by BCA assay. Protein extracts were resolved by SDS-PAGE with 7.5% gel and transferred to PVDF membrane. Proteins were detected with the following primary antibodies: rabbit anti-pIRF3 monoclonal antibody (Cell Signaling Technology), mouse anti-β actin monoclonal antibody (Sigma-Aldrich).

rocR = target: T1, rocR (Pseudomonas aeruginosa, UniProt Q9HX69); test: rocR-mediated CDN hydrolysis monitored by HPLC; type: biochemical, P. aeruginosa
T1 construct: made in house; host or cells: Escherichia coli BL21(DE3)
Source text: [1a,27] rocR is a PDE that contains an EAL domain and specifically recognizes and cleaves c-di-GMP into the linear dinucleotide pGpG. […] [28a,29]
RocR is reported to follow Michaelis-Menten kinetics. [27c,28a] Scheme 2a was therefore used to analyze the reaction kinetics, where k1 and k−1 describe the enzyme/substrate association and dissociation, respectively, while k2 reflects the cleavage reaction. Equations (10)-(13) were thus used to extract the rate constants. When “asymmetrical” mixed c-di-GMP analogues are treated with rocR, the enzyme may, in principle, recognize and cleave either phosphodiester bonds, producing pN1pN2 and pN2pN1. Assuming the two products result from different binding orientation of the heterodimeric CDNs, Scheme 2b is therefore introduced to model the cleavage reactions, where k1, k−1 and k2 reflect the association/dissociation and cleavage of the heterodimeric CDN in one orientation, respectively, and k3, k−3 and k4 reflect the other. Equations (14)-(19) were used to extract the rate constants.
Equations(10)-(19) d[S]/dt=−k1[E][S]+k−1[ES] (10) d[E]/dt=−k1[E][S]+k−1[ES]+k2[ES] (11) d[P]/dt=k2[ES] (12) d[ES]/dt=k1[E][S]−k−1[ES]−k2[ES] (13) d[S]/dt=−k1[E][S]+k−1[ES1]−k3[E][S]+k−3[ES2] (14) d[P1]/dt=k2[ES1] (15) d[P2]/dt=k4[ES2] (16) d[E]/dt=−(k1+k3)[E][S]+(k−1+k2)[ES1]+[…][ES2]] (17) d[ES1]/dt=k1[E][S]−k−1[ES1]−k2[ES1] (18) d[ES2]/dt=k3[E][S]−k−3[ES2]−k4[ES2] (19)
CDN hydrolysis with rocR. […] of CDN was incubated with 100 nM of rocR in a buffer containing 100 mM Tris-HCI, pH 8, 20 mM KCI, 25 mM MgCl2 at 37° C. Aliquots of the reaction mixture were taken out at designated time points and quenched with 100 mM CaCl2. All aliquots were filtered before subjected to reverse-phase HPLC analysis. The reaction mixture was separated by Sepax Bio C-18 column (250×10 mm, 5 µm particle size) with a gradient of 0.1-15% of 10 mM NH4OAc, pH7 in Me0H in 12 minutes at 25° C. or 50° C. (only for reactions of c-GtzGMP and c-di-tzGMP) on an Agilent 1200 series HPLC system (Agilent Technologies).
Data Analysis and curve fitting. […] The relative concentrations were plotted against time.

T1 sequence (Q9HX69 whole entry): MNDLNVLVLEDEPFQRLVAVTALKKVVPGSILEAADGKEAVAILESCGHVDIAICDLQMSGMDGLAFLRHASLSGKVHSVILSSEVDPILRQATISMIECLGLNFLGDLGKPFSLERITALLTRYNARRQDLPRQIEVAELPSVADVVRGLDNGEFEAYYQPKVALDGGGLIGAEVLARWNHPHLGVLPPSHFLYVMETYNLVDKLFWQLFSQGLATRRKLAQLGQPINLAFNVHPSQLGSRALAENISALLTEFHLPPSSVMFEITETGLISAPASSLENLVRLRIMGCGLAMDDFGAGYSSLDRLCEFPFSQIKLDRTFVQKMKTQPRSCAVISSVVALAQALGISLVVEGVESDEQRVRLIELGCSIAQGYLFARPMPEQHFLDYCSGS

For Nc1nc2c([C@@H]3O[C@@H]4COP(=O)(O)O[C@H]5[C@@H](O)[C@H](n6cnc7c(=O)[nH]c(N)nc76)O[C@@H]5COP(=O)(O)O[C@H]4[C@H]3O)snc2c(=O)[nH]1 [c-G^tzGMP], the “IFN-β mRNA production / IFN response” value (STING pathway [1]; RAW 264.7, 1, 5, 10 μM CDN, 2, 4, 6 h) was “earlier and stronger maximum IFN-β response compared to the native c-di-GMP”, the “time post transfection of highest IFN-β mRNA production” value (STING pathway [1]; RAW 264.7, 1, 5 and 10 μM CDN, 2, 4 and 6 h tested) was 2 h and the “order of IFN-β induction” value (STING pathway [1]; RAW 264.7, RT-qPCR, FIG. 3) was “c-GthGMP>c-di-tzGMP>c-GtzGMP>c-di-GMP>c-di-thGMP”. The “IRF3 phosphorylation (pIRF3), concentration dependence” value (STING pathway [2]) was “Increasing amounts of phosphorylated IRF3”, the “k2 (cleavage reaction)” value (rocR; 100 nM rocR, 37° C.) was 3.07 ± 0.25 s⁻¹ and the k2 (rocR; 100 nM rocR, 37° C., Table 3) was 0.096 ± 0.091 s⁻¹. It also gave a k3 (rocR; 100 nM rocR, 37° C., Table 3) of 3.07 ± 0.25 s⁻¹, a k3 (rocR; 100 nM rocR, 37° C., association in second orientation of heterodimeric CDN) of 1.8e+06 ± 100000 M⁻¹ s⁻¹ and a k4 (rocR; 100 nM rocR, 37° C., cleavage in second orientation) of 0.34 ± 0.01 s⁻¹. For the same compound, the “k−3” value (rocR; 100 nM rocR, 37° C., dissociation in second orientation) was 0.135 ± 0.007 s⁻¹, the k1 (rocR; 100 nM rocR, 37° C., enzyme/substrate association) was 1.85e+06 ± 70000 M⁻¹ s⁻¹ and the “order of gradually reduced rocR hydrolysis rate” value (rocR; FIG. 10F) was “c-di-GMP, c-di-^tzGMP, c-G^tzGMP, c-G^thGMP and lastly c-di-^thGMP”. For the same compound, the “final percentage of product P1” value (rocR; Scheme 2b) was 58%, the “final percentage of product P2” value (rocR; Scheme 2b) was 42% and the “products of rocR-mediated cleavage” value (rocR; mixed CDNs, HPLC) was “two products in nearly the same amount”.
